Values joined by “and” are separate entries in the source; they are usually repeats but may differ in a detail not shown here. Equal values may be shown once. Toxic doses and inconclusive results are not listed.
Tested on: L1210 leukemia ip in BDF1 mice, survival T/C
Assay: NCI In Vivo Anticancer Drug Screen. Data for tumor model L1210 Leukemia (intraperitoneal) in B6D2F1 (BDF1) mice
Details: endpoint: mean survival time, higher = longer survival
Method in brief: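 In this screen, tumor-bearing mice given compound are compared to those given vehicle, and their survival values are reported as a treated-to-control quotient.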

[1] = dose: 100.0 mg/kg/injection, schedule: Q04DX002 (ip), vehicle: saline
[2] = dose: 100.0 mg/kg/injection, schedule: Q01DX009 (ip), vehicle: saline
[3] = dose: 200.0 mg/kg/injection, schedule: Q01DX009 (ip), vehicle: saline
[4] = dose: 100.0 mg/kg/injection, schedule: Q01DX009 (ip), vehicle: Klucel (hydroxypropylcellulose) (HPC)
[5] = dose: 200.0 mg/kg/injection, schedule: Q01DX009 (ip), vehicle: Klucel (hydroxypropylcellulose) (HPC)
[6] = dose: 400.0 mg/kg/injection, schedule: Q01DX009 (ip), vehicle: Klucel (hydroxypropylcellulose) (HPC)
[7] = dose: 400.0 mg/kg/injection, schedule: Q01DX001 (ip), vehicle: carboxymethylcellulose (CMC)
[8] = dose: 100.0 mg/kg/injection, schedule: Q04DX003 (ip), vehicle: saline
[9] = dose: 200.0 mg/kg/injection, schedule: Q04DX003 (ip), vehicle: saline
[10] = dose: 25.0 mg/kg/injection, schedule: Q04DX002 (ip), vehicle: Klucel (hydroxypropylcellulose) (HPC)

CCC12C=CCN3CCC4(C(=C(C(=O)OC)C1)Nc1cc(OC)ccc14)C32 (stereo not drawn)
T/C [1]: 110 % of control
T/C (dose: 200.0 mg/kg/injection, schedule: Q04DX002 (ip), vehicle: saline): 121 % of control

C=C(C)C(N)=O
T/C [2]: 102 % of control
T/C [3]: 94 % of control

COc1ccc(NC(=O)Oc2cc(C)c(Cl)cc2C(C)C)c(OC)c1
T/C [4]: 101 % of control
T/C [5]: 101 % of control
T/C [6]: 92 % of control

Cc1ccc(NC(=O)N(CCCl)N=O)cc1NC(=O)c1ccccc1
T/C (dose: 0.22 mg/kg/injection, schedule: Q01DX009 (ip), vehicle: carboxymethylcellulose (CMC)): 103 % of control
T/C (dose: 0.45 mg/kg/injection, schedule: Q01DX009 (ip), vehicle: carboxymethylcellulose (CMC)): 103 % of control
T/C (dose: 1.8 mg/kg/injection, schedule: Q01DX009 (ip), vehicle: carboxymethylcellulose (CMC)): 180 % of control
T/C (dose: 2.6 mg/kg/injection, schedule: Q01DX009 (ip), vehicle: carboxymethylcellulose (CMC)): 175 % of control
T/C (dose: 3.0 mg/kg/injection, schedule: Q01DX009 (ip), vehicle: carboxymethylcellulose (CMC)): 164 % of control
T/C (dose: 4.0 mg/kg/injection, schedule: Q01DX009 (ip), vehicle: carboxymethylcellulose (CMC)): 151 % of control
T/C (dose: 6.6 mg/kg/injection, schedule: Q01DX009 (ip), vehicle: carboxymethylcellulose (CMC)): 179 % of control
T/C (dose: 10.0 mg/kg/injection, schedule: Q01DX009 (ip), vehicle: carboxymethylcellulose (CMC)): 194 % of control
T/C (dose: 15.0 mg/kg/injection, schedule: Q01DX009 (ip), vehicle: carboxymethylcellulose (CMC)): 183 % of control
T/C (dose: 23.0 mg/kg/injection, schedule: Q01DX009 (ip), vehicle: carboxymethylcellulose (CMC)): 243 % of control
T/C (dose: 34.0 mg/kg/injection, schedule: Q01DX009 (ip), vehicle: carboxymethylcellulose (CMC)): 186 % of control
T/C (dose: 52.0 mg/kg/injection, schedule: Q01DX009 (ip), vehicle: carboxymethylcellulose (CMC)): 178 % of control
T/C (dose: 78.0 mg/kg/injection, schedule: Q01DX001 (ip), vehicle: Klucel (hydroxypropylcellulose) (HPC)): 155 % of control
T/C (dose: 78.0 mg/kg/injection, schedule: Q01DX009 (ip), vehicle: carboxymethylcellulose (CMC)): 205 % of control
T/C (dose: 118.0 mg/kg/injection, schedule: Q01DX001 (ip), vehicle: Klucel (hydroxypropylcellulose) (HPC)): 159 % of control
T/C (dose: 177.0 mg/kg/injection, schedule: Q01DX001 (ip), vehicle: Klucel (hydroxypropylcellulose) (HPC)): 213 % of control
T/C (dose: 266.0 mg/kg/injection, schedule: Q01DX001 (ip), vehicle: carboxymethylcellulose (CMC)): 154 % of control
T/C (dose: 266.0 mg/kg/injection, schedule: Q01DX009 (ip), vehicle: carboxymethylcellulose (CMC)): 105 % of control
T/C [7]: 150 % of control and 168 % of control
T/C (dose: 400.0 mg/kg/injection, schedule: Q01DX009 (ip), vehicle: carboxymethylcellulose (CMC)): 98 % of control
T/C (dose: 600.0 mg/kg/injection, schedule: Q01DX001 (ip), vehicle: carboxymethylcellulose (CMC)): 165 % of control

CCCCSCC(N)C(=O)OC (stereo not drawn)
T/C [2]: 96 % of control
T/C [8]: 106 % of control
T/C [3]: 101 % of control
T/C [9]: 100 % of control
T/C (dose: 400.0 mg/kg/injection, schedule: Q01DX009 (ip), vehicle: saline): 112 % of control
T/C (dose: 400.0 mg/kg/injection, schedule: Q04DX003 (ip), vehicle: saline): 97 % of control

Clc1[nH]cnc1Br
T/C (dose: 100.0 mg/kg/injection, schedule: Q04DX003 (ip), vehicle: saline with Tween-80): 107 % of control
T/C (dose: 200.0 mg/kg/injection, schedule: Q04DX003 (ip), vehicle: saline with Tween-80): 93 % of control
T/C (dose: 400.0 mg/kg/injection, schedule: Q04DX003 (ip), vehicle: saline with Tween-80): 104 % of control

C=C1C(=O)OC2CCCC/C=C\C12 (stereo not drawn)
T/C (dose: 50.0 mg/kg/injection, schedule: Q01DX009 (ip), vehicle: saline): 95 % of control
T/C [2]: 98 % of control
T/C [3]: 95 % of control

O=[N+]([O-])c1cccc2c1/C(=N/O)c1ccccc1-2
T/C (dose: 100.0 mg/kg/injection, schedule: Q01DX001 (ip), vehicle: carboxymethylcellulose (CMC)): 101 % of control
T/C (dose: 200.0 mg/kg/injection, schedule: Q01DX001 (ip), vehicle: carboxymethylcellulose (CMC)): 92 % of control
T/C [7]: 98 % of control

CC(OC1OC(CO)C(OC2OC(CO)C(O)C(O)C2O)C(O)C1O)C1CC(O)C2C3CCC4=CC(=O)CCC4(C)C3CCC12C (stereo not drawn)
T/C (dose: 25.0 mg/kg/injection, schedule: Q04DX002 (ip), vehicle: saline): 104 % of control
T/C (dose: 50.0 mg/kg/injection, schedule: Q04DX002 (ip), vehicle: saline): 107 % of control
T/C [1]: 96 % of control

[CH3][Sn]([CH3])([CH3])[c]1ccc(-c2ccccc2)cc1
T/C [10]: 92 % of control
T/C (dose: 50.0 mg/kg/injection, schedule: Q04DX002 (ip), vehicle: Klucel (hydroxypropylcellulose) (HPC)): 95 % of control
T/C (dose: 100.0 mg/kg/injection, schedule: Q04DX002 (ip), vehicle: Klucel (hydroxypropylcellulose) (HPC)): 100 % of control

CCCCC(C=NCC(CCCC)(CCN(C)C)c1cccc2ccccc12)(CCN(C)C)c1cccc2ccccc12 (stereo not drawn)
T/C (dose: 6.25 mg/kg/injection, schedule: Q04DX002 (ip), vehicle: Klucel (hydroxypropylcellulose) (HPC)): 89 % of control
T/C (dose: 12.5 mg/kg/injection, schedule: Q04DX002 (ip), vehicle: Klucel (hydroxypropylcellulose) (HPC)): 89 % of control
T/C [10]: 92 % of control

Cc1ccc2c(ccc(/C=C/c3ccc(O)c4ccccc34)[n+]2C)c1
T/C (dose: 75.0 mg/kg/injection, schedule: Q01DX001 (ip), vehicle: carboxymethylcellulose (CMC)): 95 % of control
T/C (dose: 150.0 mg/kg/injection, schedule: Q01DX001 (ip), vehicle: carboxymethylcellulose (CMC)): 97 % of control
T/C (dose: 300.0 mg/kg/injection, schedule: Q01DX001 (ip), vehicle: carboxymethylcellulose (CMC)): 96 % of control

CCOC(=O)c1ccc(Nc2nnc(-c3ccccc3Cl)s2)cc1
T/C (dose: 25.0 mg/kg/injection, schedule: Q04DX002 (ip), vehicle: gum acacia): 98 % of control
T/C (dose: 100.0 mg/kg/injection, schedule: Q04DX002 (ip), vehicle: gum acacia): 88 % of control
T/C (dose: 200.0 mg/kg/injection, schedule: Q04DX002 (ip), vehicle: gum acacia): 102 % of control
T/C (dose: 400.0 mg/kg/injection, schedule: Q04DX002 (ip), vehicle: gum acacia): 94 % of control

COc1cc2cc3cc4cc(OC)c(OC)cc4c(C)[n+]3cc2cc1OC (tested in a mixture with another compound)
T/C (dose: 2.5 mg/kg/injection, schedule: Q01DX009 (ip), vehicle: saline): 106 % of control
T/C (dose: 5.0 mg/kg/injection, schedule: Q01DX009 (ip), vehicle: saline): 108 % of control and 118 % of control
T/C (dose: 10.0 mg/kg/injection, schedule: Q01DX009 (ip), vehicle: saline): 108 % of control
T/C (dose: 20.0 mg/kg/injection, schedule: Q01DX009 (ip), vehicle: saline): 104 % of control
T/C (dose: 40.0 mg/kg/injection, schedule: Q01DX009 (ip), vehicle: saline): 110 % of control and 111 % of control
T/C (dose: 80.0 mg/kg/injection, schedule: Q01DX009 (ip), vehicle: saline): 92 % of control

CC(=O)c1ccc(N2C(=O)C=CC2=O)cc1
T/C (dose: 25.0 mg/kg/injection, schedule: Q04DX003 (ip), vehicle: Klucel (hydroxypropylcellulose) (HPC)): 114 % of control
T/C (dose: 50.0 mg/kg/injection, schedule: Q04DX003 (ip), vehicle: Klucel (hydroxypropylcellulose) (HPC)): 115 % of control

CC(=O)Nc1cccc(OC(=O)Nc2ccccc2F)c1
T/C [4]: 91 % of control
T/C [5]: 101 % of control
T/C [6]: 112 % of control

N=C([Se])c1c(N)ncn1C1OC(CO)C(O)C1O (stereo not drawn)
T/C (dose: 12.5 mg/kg/injection, schedule: Q01DX005 (ip), vehicle: saline): 98 % of control
T/C (dose: 25.0 mg/kg/injection, schedule: Q01DX005 (ip), vehicle: saline): 94 % of control
T/C (dose: 50.0 mg/kg/injection, schedule: Q01DX005 (ip), vehicle: saline): 96 % of control

CCOP(=O)(/C=C/NC1CCCCC1)OCC
T/C (dose: 50.0 mg/kg/injection, schedule: Q04DX003 (ip), vehicle: saline): 90 % of control
T/C (dose: 100.0 mg/kg/injection, schedule: Q01DX001 (ip), vehicle: saline): 109 % of control
T/C [8]: 89 % of control
T/C (dose: 200.0 mg/kg/injection, schedule: Q01DX001 (ip), vehicle: saline): 114 % of control
T/C [9]: 101 % of control

From PubChem BioAssay AID248 (DTP/NCI, 2004)
